pIC50: −log10 of the molar value. Some results are limits rather than exact numbers.

Chain of ROR gamma ligand-binding domain (hRORg) (P51449 269-508): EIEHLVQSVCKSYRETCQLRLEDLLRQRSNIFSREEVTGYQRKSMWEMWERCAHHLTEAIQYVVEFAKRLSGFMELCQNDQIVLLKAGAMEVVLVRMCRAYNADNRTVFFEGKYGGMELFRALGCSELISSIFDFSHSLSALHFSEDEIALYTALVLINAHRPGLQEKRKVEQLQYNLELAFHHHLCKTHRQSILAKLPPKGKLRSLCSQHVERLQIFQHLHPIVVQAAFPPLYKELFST

This test concerns the target ROR gamma ligand-binding domain (hRORg) (Homo sapiens (Human), UniProt P51449). The test is described as follows: GAL4-RORγ transactivation (luciferase reporter, HG5LN HeLa line). The format is cell-based. The note with it: 18 hours incubation. The text has this:
GAL4-RORγ Transactivation
The RORγ transactivation model was developed from the line HG5LN, which is a HeLa line that stably expresses a luciferase reporter gene controlled by a pentamer of the GAL4 recognition domain of yeast and of a β-globin promoter. The HG5LN line was stably transfected by the DNA-binding domain (DBD) of GAL4 fused to the ROR gamma ligand-binding domain (LBD). Molecules that inhibit the ROR gamma constitutive activity reduce the luciferase expression, thus leading to a reduction in the emitted luminescence.
The cells are seeded in 384-well plates (5000 cells in 45 μL/well of culture medium containing 10% fetal calf serum) and incubated for 4 hours at 37° C., 5% CO2. 5 μL of the test molecules (compounds described in the tables described above) are then added to each well and the plates are incubated for 18 hours at a temperature of 37° C. under 5% of CO2. 20 μL of luciferase substrate (Promega) are added to each well and the luminescence emitted is read by a microplate reader.
The luminescence units (“RLU”) are normalized by positive controls (“POS” containing a saturated concentration of benzenesulfonamide, N-(2,2,2-trifluoroethyl)-N-[4-[2,2,2-trifluoro-1-hydroxy-1-(trifluoromethyl)ethyl]phenyl]) and negative controls (“NEG” containing DMSO): % inhibition=((RLU−NEG)*100)/(POS−NEG). The IC50 values are calculated from a 4-parameter logistic model using the XLFit software (IDBS).
(Reporter assays use an easily measured gene product as a stand-in for the process of interest.)
What is called pIC50 is −log10 of the IC50, conventionally taken in molar units. `CCc1ccc(N(CC(C)C)S(=O)(=O)c2ccc3c(c2)SC(C)(C)N3CC2CCOCC2)cc1` [compound 73, 2,2-dimethyl-3-(tetrahydropyran-4-ylmethyl)-2,3-dihydrobenzothiazole-6-sulfonic acid (4-ethylphenyl)isobutylamide] had a pIC50 of under 6.00.
The figure for `CCc1ccc(N(CC(C)C)S(=O)(=O)c2ccc3c(c2)[S+]([O-])C(C)(C)N3CC2CCOCC2)cc1` (stereo not drawn) [compound 74, 2,2-dimethyl-1-oxo-3-(tetrahydropyran-4-ylmethyl)-2,3-dihydro-1H-1λ^4-benzothiazole-6-sulfonic acid (4-ethylphenyl)isobutylamide] is 6.00 to 7.00; for `CCc1ccc(N(CC(C)C)S(=O)(=O)c2ccc3c(c2)[S+]([O-])CN3CC2CCOCC2)cc1` (stereo not drawn) [compound 75, 1-oxo-3-(tetrahydropyran-4-ylmethyl)-2,3-dihydro-1H-1λ^4-benzothiazole-6-sulfonic acid (4-ethylphenyl)isobutylamide] it is under 6.00; for `CCc1ccc(N(CC(C)C)S(=O)(=O)c2ccc3c(c2)S(=N)(=O)CN3CC2CCOCC2)cc1` (stereo not drawn) [compound 76, 1-imino-1-oxo-3-(tetrahydropyran-4-ylmethyl)-2,3-dihydro-1H-1λ^6-benzothiazole-6-sulfonic acid (4-ethylphenyl)isobutylamide] it is under 6.00.
With `CCc1ccc(N(CC(C)C)S(=O)(=O)c2ccc(OCc3ccnc(OC)c3)c(S(C)(=N)=O)c2)cc1` (stereo not drawn) [compound 77, N-(4-ethylphenyl)-N-isobutyl-4-((2-methoxypyridin-4-yl)methoxy)-3-(S-methylsulfonimidoyl)benzenesulfonamide] the figure was under 6.00; with `CCc1ccc(N(CC(C)C)S(=O)(=O)c2ccc(OC[C@H]3CNC(=O)O3)c(S(C)(=N)=O)c2)cc1` (stereo partly drawn) [compound 79, N-(4-ethylphenyl)-N-isobutyl-3-(S-methylsulfonimidoyl)-4-(((R)-2-oxooxazolidin-5-yl)methoxy)benzenesulfonamide], under 6.00.
With `CCc1ccc(N(CC(C)C)S(=O)(=O)c2ccc(Oc3ccc(C#N)cc3)c(S(C)(=N)=O)c2)cc1` (stereo not drawn) [compound 80, 4-(4-cyanophenoxy)-N-(4-ethylphenyl)-N-isobutyl-3-(S-methylsulfonimidoyl)benzenesulfonamide] the figure was under 6.00.
The compound `CCc1ccc(N(CC(C)C)S(=O)(=O)c2ccc(NCC3CNC(=O)O3)c(S(C)(=N)=O)c2)cc1` (stereo not drawn) [compound 82, N-(4-ethylphenyl)-N-isobutyl-3-(S-methylsulfonimidoyl)-4-(((2-oxooxazolidin-5-yl)methyl)amino)benzenesulfonamide] showed a pIC50 of 6.00 to 7.00.
Compound `CCc1ccc(N(CC(C)C)S(=O)(=O)c2ccc(NC3CCS(=O)(=O)CC3)c(S(C)(=N)=O)c2)cc1` (stereo not drawn) [compound 83, 4-((1,1-dioxidotetrahydro-2H-thiopyran-4-yl)amino)-N-(4-ethylphenyl)-N-isobutyl-3-(S-methylsulfonimidoyl)benzenesulfonamide] showed a pIC50 of under 6.00.
`CCc1ccc(N(CC(C)C)S(=O)(=O)c2ccc(NCC3CCN(C(C)=O)CC3)c(S(C)(=N)=O)c2)cc1` (stereo not drawn) [compound 84, 4-(((1-acetylpiperidin-4-yl)methyl)amino)-N-(4-ethylphenyl)-N-isobutyl-3-(S-methylsulfonimidoyl)benzenesulfonamide] had a negative-log IC50 (pIC50) of under 6.00.
The figure for `CCc1ccc(N(CC(C)C)S(=O)(=O)c2ccc(NC3CCC(=O)NC3)c(S(C)(=N)=O)c2)cc1` (stereo not drawn) [compound 85, N-(4-ethylphenyl)-N-isobutyl-3-(S-methylsulfonimidoyl)-4-((6-oxopiperidin-3-yl)amino)benzenesulfonamide] is under 6.00.
`CCc1ccc(N(CC(C)C)S(=O)(=O)c2ccc(NC3CCS(=O)(=O)C3)c(S(C)(=N)=O)c2)cc1` (stereo not drawn) [compound 86, 4-((1,1-dioxidotetrahydrothiophen-3-yl)amino)-N-(4-ethylphenyl)-N-isobuytl-3-(S-methylsulfonimidoyl)benzenesulfonamide] had a pIC50 of 6.00 to 7.00.
The figure for `CCc1ccc(N(CC(C)C)S(=O)(=O)c2ccc(NCc3nonc3C)c(S(C)(=N)=O)c2)cc1` (stereo not drawn) [compound 88, N-(4-ethylphenyl)-N-isobutyl-4-(((4-methyl-1,2,5-oxadiazol-3-yl)methyl)amino)-3-(S-methylsulfonimidoyl)benzenesulfonamide] is under 6.00; for `CCc1ccc(N(CC(C)C)S(=O)(=O)c2ccc(NCC3CN(C(=O)OC)C3)c(S(C)(=N)=O)c2)cc1` (stereo not drawn) [compound 89, methyl 3-(((4-(N-(4-ethylphenyl)-N-isobutylsulfamoyl)-2-(S-methylsulfonimidoyl)phenyl)amino)methyl)azetidine-1-carboxylate] it is under 6.00; for `CCc1ccc(N(CC(C)C)S(=O)(=O)c2ccc(NCc3ccnc(C)c3)c(S(C)(=N)=O)c2)cc1` (stereo not drawn) [compound 90, N-(4-ethylphenyl)-N-isobutyl-4-(((2-methylpyridin-4-yl)methyl)amino)-3-(S-methylsulfonimidoyl)benzenesulfonamide] it is under 6.00.
In turn, `CCc1ccc(N(CC(C)C)S(=O)(=O)c2ccc(NCC3CCN(C(=O)OC)CC3)c(S(C)(=N)=O)c2)cc1` (stereo not drawn) [compound 93, methyl 4-(((4-(N-(4-ethylphenyl)-N-isobutylsulfamoyl)-2-(S-methylsulfonimidoyl)phenyl)amino)methyl)piperidine-1-carboxylate] gave a pIC50 of under 6.00.
With `CCc1ccc(N(CC(C)C)S(=O)(=O)c2ccc(NCC3CCN(C(=O)OC)C3)c(S(C)(=N)=O)c2)cc1` (stereo not drawn) [compound 94, methyl 3-(((4-(N-(4-ethylphenyl)-N-isobutylsulfamoyl)-2-(S-methylsulfonimidoyl)phenyl)amino)methyl)pyrrolidine-1-carboxylate] the figure was under 6.00; with `CCc1ccc(N(CC(C)C)S(=O)(=O)c2ccc(NCC3CC4(COC4)C3)c(S(C)(=N)=O)c2)cc1` (stereo not drawn) [compound 95, 4-(((2-oxaspiro[3.3]heptan-6-yl)methyl)amino)-N-(4-ethylphenyl)-N-isobutyl-3-(S-methylsulfonimidoyl)benzenesulfonamide], 6.00 to 7.00.
As to `CCc1ccc(N(CC(C)C)S(=O)(=O)c2ccc(NCC3CCNC(=O)C3)c(S(C)(=N)=O)c2)cc1` (stereo not drawn) [compound 96, 4-N-(4-ethylphenyl)-N-isobutyl-3-(S-methylsulfonimidoyl)-4-(((2-oxopiperidin-4-yl)methyl)amino)benzenesulfonamide], the pIC50 is under 6.00.
As to `CCc1ccc(N(CC(C)C)S(=O)(=O)c2ccc(NCc3c(C)noc3C)c(S(C)(=N)=O)c2)cc1` (stereo not drawn) [compound 97, 4-(((3,5-dimethylisoxazol-4-yl)methyl)amino)-N-(4-ethylphenyl)-N-isobutyl-3-(S-methylsulfonimidoyl)benzenesulfonamide], the pIC50 is 6.00 to 7.00.
With `CCc1ccc(N(CC(C)C)S(=O)(=O)c2ccc(NCC3CCN(C(C)=O)C3)c(S(C)(=N)=O)c2)cc1` (stereo not drawn) [compound 100, 4-(((1-acetylpyrrolidin-3-yl)methyl)amino)-N-(4-ethylphenyl)-N-isobutyl-3-(S-methylsulfonimidoyl)benzenesulfonamide] the figure was under 6.00.
For the compound `CCc1ccc(N(CC(C)C)S(=O)(=O)c2ccc(NC[C@@H]3CNC(=O)O3)c(S(C)(=N)=O)c2)cc1` (stereo partly drawn) [compound 105, N-(4-ethylphenyl)-N-isobutyl-3-(S-methylsulfonimidoyl)-4-((((R)-2-oxooxazolidin-5-yl)methyl)amino)benzenesulfonamide], the pIC50 was under 6.00.
`CCc1ccc(N(CC(C)C)S(=O)(=O)c2ccc(NC[C@H]3CNC(=O)O3)c(S(C)(=N)=O)c2)cc1` (stereo partly drawn) [compound 106, N-(4-ethylphenyl)-N-isobutyl-3-(S-methylsulfonimidoyl)-4-((((S)-2-oxooxazolidin-5-yl)methyl)amino)benzenesulfonamide] gave a pIC50 of under 6.00.
As to `CCc1ccc(N(CC(C)C)S(=O)(=O)c2ccc(N3CCCC4(COC4)C3)c(S(C)(=N)=O)c2)cc1` (stereo not drawn) [compound 109, N-(4-ethylphenyl)-N-isobutyl-3-(S-methylsulfonimidoyl)-4-(2-oxa-6-azaspiro[3.5]nonan-6-yl)benzenesulfonamide], the negative logarithm of the IC50 (pIC50) is under 6.00.
For the compound `CCc1ccc(N(CC(C)C)S(=O)(=O)c2ccc(N3CC4(CN(C(=O)OC(C)(C)C)C4)C3)c(S(C)(=N)=O)c2)cc1` (stereo not drawn) [compound 110, tert-butyl 6-(4-(N-(4-ethylphenyl)-N-isobutylsulfamoyl)-2-(S-methylsulfonimidoyl)phenyl)-2,6-diazaspiro[3.3]heptane-2-carboxylate], the pIC50 was under 6.00.
Regarding `CCc1ccc(N(CC(C)C)S(=O)(=O)c2ccc(N3CC4(COC4)C3)c(S(C)(=N)=O)c2)cc1` (stereo not drawn) [compound 111, N-(4-ethylphenyl)-N-isobutyl-3-(S-methylsulfonimidoyl)-4-(2-oxa-6-azaspiro[3.3]heptan-6-yl)benzenesulfonamide], the negative logarithm of the IC50 (pIC50) is over 7.00.
Consider `CCc1ccc(N(CC(C)C)S(=O)(=O)c2ccc(N3CC4(C3)CS(=O)(=O)C4)c(S(C)(=N)=O)c2)cc1` (stereo not drawn) [compound 113, 4-(2,2-dioxido-2-thia-6-azaspiro[3.3]heptan-6-yl)-N-(4-ethylphenyl)-N-isobutyl-3-(S-methylsulfonimidoyl)benzenesulfonamide], for which the pIC50 was 6.00 to 7.00.

For the origin of these results see patent US10457637B2, “Benzenesulfonamide derivatives as inverse agonists of retinoid-related orphan receptor gamma (RORγ(T))” (GALDERMA RESEARCH & DEVELOPMENT, priority 2014, dated 2019).
